# Measured values published in patent publication US20260250262A1, “NEW COMPOUND AND PHARMACEUTICAL COMPOSITION COMPRISING SAME” (SAMJIN PHARMACEUTICAL CO., LTD., priority 2023, published 2026).
# Target: T1, Recombinant NAMPT protein (Homo sapiens, UniProt P43490)
# T1 construct: purchased BPS bioscience #7176-1
# Experiment: NAMPT enzyme inhibition assay (BPS Bioscience NAMPT Inhibitor Screening Assay Kit)
# Assay type: biochemical
# Details: 30 min pre-incubation, 2 h at 30° C., fluorescence
# Description: Recombinant NAMPT protein was added to each well of a black 96-well plate, and dilution buffer was added to a blank well instead of NAMPT protein. A 5× concentrated compound solution was added and pre-incubated at room temperature (approximately 22° C.) for 30 minutes before the start of the reaction so that the compound and protein might bind before the enzyme reaction. At this time, the concentration of NAMPT protein was adjusted and used according to the enzyme activity of each protein lot within the final concentration range of 4-10 ng/μl, and the test compound was serially diluted at a ratio of 1:3 from 1000 nM to 1 nM, and experiments were conducted with n=2 for about seven concentrations. […] The NAMPT enzyme activity (%) was calculated by subtracting the measurement value of the blank well without NAMPT protein from the measurement value of all wells, and then taking the measurement value of the control well without the compound as 100%.
# T1 sequence (P43490 whole entry): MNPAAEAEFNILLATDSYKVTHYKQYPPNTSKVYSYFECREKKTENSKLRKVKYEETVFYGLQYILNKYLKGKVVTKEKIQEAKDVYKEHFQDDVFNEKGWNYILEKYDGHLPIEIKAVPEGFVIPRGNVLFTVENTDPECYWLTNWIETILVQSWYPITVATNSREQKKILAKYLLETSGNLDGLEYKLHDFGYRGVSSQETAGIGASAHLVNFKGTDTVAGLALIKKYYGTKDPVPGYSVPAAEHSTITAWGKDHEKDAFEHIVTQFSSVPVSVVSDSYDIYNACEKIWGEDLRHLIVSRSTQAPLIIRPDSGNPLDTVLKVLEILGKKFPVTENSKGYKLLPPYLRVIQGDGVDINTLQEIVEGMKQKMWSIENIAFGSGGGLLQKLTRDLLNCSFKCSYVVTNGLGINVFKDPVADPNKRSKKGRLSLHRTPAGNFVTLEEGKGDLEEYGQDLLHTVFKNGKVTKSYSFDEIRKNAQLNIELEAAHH
row,IC50,SMILES
1,< 500 nM,Cn1ccc(CS(=O)(=O)c2ccc(NC(=O)NCCc3cccnc3)cc2C#Cc2ccc(F)cc2)n1 [Compound 69]
2,< 500 nM,O=C(NCCc1cccnc1)Nc1ccc(C(=O)Nc2ccccc2)c(C#Cc2ccc(C(=O)NCCN3CCCCC3)cc2)c1 [Compound 95]
3,< 500 nM,O=C(NCCCc1cn[nH]c1)Nc1ccc(-c2ccncc2)c(C#Cc2ccc(F)cc2)c1 [Compound 110]
4,> 1000 nM,O=C(NCCc1cccnc1)Nc1ccc(N2CCNCC2)c(C#Cc2ccc(F)cc2)c1 [Compound 118]
5,< 500 nM,CCC(=O)Nc1ccc(NC(=O)NCCc2cccnc2)cc1C#Cc1ccc(F)cc1 [Compound 122]
6,< 500 nM,O=C(NCCc1cccnc1)Nc1ccc(NC(=O)c2ccc(F)cc2)c(C#Cc2ccc(F)cc2)c1 [Compound 124]
7,< 500 nM,Nc1cccc(C#Cc2cc(NC(=O)NCCc3cccnc3)ccc2-c2ccncc2)c1 [Compound 139]
8,< 500 nM,Nc1cccc(C(=O)Nc2ccc(NC(=O)NCCc3cccnc3)cc2C#Cc2ccc(F)cc2)c1 [Compound 177]
9,> 1000 nM,O=C(NCCc1ccc([N+](=O)[O-])nc1)Nc1ccc(-c2ccncc2)c(C#Cc2ccc(F)cc2)c1 [Compound 182]
10,500 to 1000 nM,NC1CCCN(c2ccc(NC(=O)NCCc3cccnc3)cc2C#Cc2ccc(C(=O)NCCN3CCCCC3)cc2)C1 (stereo not drawn) [Compound 184]
11,500 to 1000 nM,O=C(NCc1ccn2ccnc2c1)Nc1ccc(-c2ccc(N3CCNCC3)cc2)c(C#Cc2ccc(F)cc2)c1 [Compound 185]

# More lines, now with the values behind:
row,SMILES,IC50
1,"O=C(NCCc1cccnc1)Nc1ccc(-c2ccc(C(=O)N3CCC(F)(F)CC3)cc2)c(C#Cc2ccc(F)cc2)c1 [Compound 2, 1-(4′-(4,4-difluoropiperidine-1-carbonyl)-2-((4-fluorophenyl)ethynyl)-[1,1′-biphenyl]-4-yl)-3-(2-(pyridin-3-yl)ethyl)urea]",< 500 nM
2,"O=C(NCCn1ccnc1)Nc1ccc(-c2ccncc2)c(C#Cc2ccc(F)cc2)c1 [Compound 3, 1-(2-(1H-imidazol-1-yl)ethyl)-3-(3-((4-fluorophenyl)ethynyl)-4-(pyridin-4-yl)phenyl)urea]",500 to 1000 nM
3,"O=C(NCCc1cccc(O)c1)Nc1ccc(-c2ccncc2)c(C#Cc2ccc(F)cc2)c1 [Compound 5, 1-(3-((4-fluorophenyl)ethynyl)-4-(pyridin-4-yl)phenyl)-3-(3-hydroxyphenethyl)urea]",> 1000 nM
4,"O=C(NCCn1ccnc1[N+](=O)[O-])Nc1ccc(-c2ccncc2)c(C#Cc2ccc(F)cc2)c1 [Compound 8, 1-(3-((4-fluorophenyl)ethynyl)-4-(pyridin-4-yl)phenyl)-3-(2-(2-nitro-1H-imidazol-1-yl)ethyl)urea]",> 1000 nM
5,"O=C(NCCc1cccnc1)Nc1ccc(-c2cccc(N3CCOCC3)c2)c(C#Cc2ccc(F)cc2)c1 [Compound 9, 1-(2-((4-fluorophenyl)ethynyl)-3′-morpholino-[1,1′-biphenyl]-4-yl)-3-(2-(pyridin-3-yl)ethyl)urea]",500 to 1000 nM
6,Nc1ccc(CCNC(=O)Nc2ccc(-c3ccncc3)c(C#Cc3ccc(F)cc3)c2)cn1 [Compound 10],> 1000 nM
7,O=C(NCCc1ccc2ocnc2c1)Nc1ccc(-c2ccncc2)c(C#Cc2ccc(F)cc2)c1 [Compound 11],> 1000 nM
8,NC1CCN(C(=O)c2cccc(-c3ccc(NC(=O)NCCc4cccnc4)cc3C#Cc3ccc(C(=O)NCCN4CCCCC4)cc3)c2)C1 (stereo not drawn) [Compound 43],> 1000 nM
9,Nc1cccc(C(=O)N2CCN(c3ccc(NC(=O)NCCc4cccnc4)cc3C#Cc3ccc(F)cc3)CC2)c1 [Compound 52],< 500 nM
10,O=C(NCCc1cccnc1)Nc1ccc(-c2ccc3cnccc3c2)c(C#Cc2ccc(F)cc2)c1 [Compound 57],< 500 nM
